Assay results from patent US20150031102A1, “METHODS AND COMPOSITIONS FOR ENHANCED PRODUCTION OF BUTANOL BY CLOSTRIDIA” (Butrolix LLC, priority 2012, published 2015).
Marks after values point to notes of the source that are not given here.

Experiments:
[1] = test system: C. acetobutylicum; assay: Calculated optimum peptide treatment level (polynomial curve fitted to butanol concentration vs treatment level per culture transfer); assay type: cell-based, Clostridium acetobutylicum
Description: FIG. 20. Calculation of optimum peptide treatment level for transfer 13 of the first experiment that tested peptide BP110517 (SEQ ID NO:143) (see Table 1 for data). The four butanol concentration data points were graphed against the treatment levels and a polynomial curve was fitted to the graph.
The data from the sequential batch culture experiments treated with peptides BP110517 and BP1106213 were used to calculate optimum peptide treatment levels for enhanced butanol production by C. acetobutylicum. The calculation was made for each culture transfer using the butanol concentration results from control and experimental wells. The four data points for each culture transfer were graphed against the treatment levels, and a polynomial curve was fitted to the graph.
Then, the first derivative of the polynomial fitted to the data for each culture transfer was solved for “x”, which was the maximum point of the fitted polynomial curve (Table 46). The resulting peptide concentration value was assumed to be close to an optimum peptide treatment level that would result in enhanced butanol production.

[2] = test system: C. acetobutylicum; assay: Time course study of replicate 250 mL batch cultures (growth, butanol, residual glucose, yield, productivity); assay type: cell-based, Clostridium acetobutylicum; conditions: for Increased butanol concentration versus untreated: 50 nM BP1106213; for Butanol concentration / Residual glucose: 50 nM peptide, average ± SD of triplicate, second time course study; for Residual glucose: initial glucose 60 g/L
Method: Subsequently, time-course studies were conducted using the optimum peptide treatment level that was determined by the sequential batch transfer experiments. Untreated and peptide-treated cultures were grown in triplicate 250 mL batches that were inoculated with […] of the ninth sequential transfer from 24-well culture plates. The 1/1000 ratio of inoculum to culture volume was the same as that used throughout the prior sequential batch transfer experiments, and the replicate time course batch cultures corresponded to the 10th sequential batch transfer. Samples were recovered from the triplicate control and experimental batches a regular time intervals up to 96 hours of culture. Optical density of the replicates was measured and culture supernatants were recovered following centrifugation and analyzed later for butanol and residual glucose concentrations. The analyses were used to calculate yield and productivity of the cultures.
Clostridium acetobutylicum strain ATCC 824 was used in all experiments and the growth medium used for sequential batch transfer, time course, and continuous culture experiments contained yeast extract, casamino acids, L-cysteine, L-asparagine, phosphate buffer, trace minerals, and 6% glucose. What are believed to be quorum-sensing peptides that were used in the experiments were chemically synthesized peptides SEQ ID NO: 143 (amino acid sequence: SYPGWSW) and SEQ ID NO: 144 (amino acid sequence: ILILISG). Routine growth of the bacteria as well as the sequential batch and time course experiments were conducted in a Form a Scientific Model 1029 anaerobic gas chamber at 32° C. Continuous cultures were performed at 32° C. using duplicate New Brunswick Scientific BioFlo 3000 apparati with a dilution rate of 0.01 volume per hour, 75 rpm agitation, and nitrogen gas sparging. Optical density of culture samples was measured at 600 nm in a Beckman DU 600 series spectrophotometer and glucose was analyzed using a YSI Model 2700 Select Biochemistry Analyzer with internal glucose calibration. Butanol concentrations were determined by measuring experimental and standard samples using a Varian Saturn 3 Gas Chromatograph/Mass Spectrometer and calculating butanol concentrations using standard curves.
The study was started by inoculating triplicate 250 mL batches of untreated and peptide-treated medium with 250 μL of the corresponding ninth sequential transfer from 24-well culture plates. Therefore, the replicate time course batch cultures corresponded to the 10th sequential batch transfer. Samples were recovered from the triplicate control and experimental batches at regular time intervals up to 96 hours of culture for measurement of optical density at 600 nm and analysis of butanol and residual glucose concentrations.
Like the previous time course experiment, this study was started by inoculating triplicate 250 mL batches of untreated and peptide-treated medium with 250 μL of the corresponding ninth sequential transfer from 24-well culture plates. As before, samples were recovered from the triplicate control and experimental batches at regular time intervals up to 96 hours of culture for measurement of optical density and analysis of butanol and residual glucose concentrations.

ILILISG (Derived from Clostridium acetobutylicum SEQ ID NO: 110) [peptide SEQ ID NO: 144]
Calculated Optimum Peptide Level, Average ([1]; average over culture transfers, Expt. 1): 46.2 ± 10.7 nM | Calculated Optimum Peptide Level, Average ([1]; average over culture transfers, Expt. 2): 40.5 ± 3.8 nM | Average optimum peptide treatment level ([1]; average over culture transfers, both experiments for BP110517, single non-inhibitory experiment for BP1106213, fairly large standard deviations): mid to high 40 | Calculated Optimum Peptide Level ([1]; transfer 4, Expt. 1): 46.0 nM | Calculated Optimum Peptide Level ([1]; transfer 4, Expt. 2): Inhib. | Calculated Optimum Peptide Level ([1]; transfer 7, Expt. 1): 32.4 nM | Calculated Optimum Peptide Level ([1]; transfer 7, Expt. 2): Inhib. | Calculated Optimum Peptide Level ([1]; transfer 10, Expt. 1): 49.0 nM | Calculated Optimum Peptide Level ([1]; transfer 10, Expt. 2): Inhib. | Calculated Optimum Peptide Level ([1]; transfer 13, Expt. 1): Inhib.^d | Calculated Optimum Peptide Level ([1]; transfer 13, Expt. 2): 43.2 nM | Calculated Optimum Peptide Level ([1]; transfer 16, Expt. 1): 50.7 nM | Calculated Optimum Peptide Level ([1]; transfer 16, Expt. 2): Inhib. | Calculated Optimum Peptide Level ([1]; transfer 19, Expt. 1): 36.8 nM | Calculated Optimum Peptide Level ([1]; transfer 19, Expt. 2): Inhib. | Calculated Optimum Peptide Level ([1]; transfer 22, Expt. 1): 62.4 nM | Calculated Optimum Peptide Level ([1]; transfer 22, Expt. 2): 37.8 nM | Increased butanol concentration versus untreated ([2]; 72 hours of culture growth): ≤ 15% | Increased butanol concentration versus untreated ([2]; 96 hours of culture growth): ≤ 21% | Butanol concentration ([2]; 0 hours): 0.23 ± 0.00 g/L | Residual glucose ([2]; 0 hours): 59.1 ± 0.9 g/L | Butanol concentration ([2]; 6 hours): 0.24 ± 0.00 g/L | Residual glucose ([2]; 6 hours): 59.8 ± 0.9 g/L | Butanol concentration ([2]; 12 hours): 0.26 ± 0.01^c g/L | Residual glucose ([2]; 12 hours): 60.7 ± 0.8 g/L | Butanol concentration ([2]; 15 hours): 0.26 ± 0.01^c g/L | Residual glucose ([2]; 15 hours): 58.4 ± 0.5 g/L | Butanol concentration ([2]; 18 hours): 0.28 ± 0.01^c g/L | Residual glucose ([2]; 18 hours): 57.4 ± 0.7 g/L | Butanol concentration ([2]; 21 hours): 0.32 ± 0.01 g/L | Residual glucose ([2]; 21 hours): 60.6 ± 0.8 g/L | Butanol concentration ([2]; 24 hours): 0.52 ± 0.01^c g/L | Residual glucose ([2]; 24 hours): 49.4 ± 0.7 g/L | Butanol concentration ([2]; 27 hours): 0.64 ± 0.01 g/L | Residual glucose ([2]; 27 hours): 50.4 ± 1.9 g/L | Butanol concentration ([2]; 30 hours): 0.70 ± 0.04 g/L | Residual glucose ([2]; 30 hours): 49.7 ± 1.9 g/L | Butanol concentration ([2]; 33 hours): 0.82 ± 0.03 g/L | Residual glucose ([2]; 33 hours): 47.6 ± 1.2 g/L | Butanol concentration ([2]; 36 hours): 0.82 ± 0.03 g/L | Residual glucose ([2]; 36 hours): 47.4 ± 1.3 g/L | Butanol concentration ([2]; 48 hours): 1.00 ± 0.03 g/L | Residual glucose ([2]; 48 hours): 44.9 ± 0.5 g/L | Butanol concentration ([2]; 72 hours): 1.17 ± 0.12^c g/L | Residual glucose ([2]; 72 hours): 44.1 ± 3.1 g/L | Butanol concentration ([2]; 96 hours): 0.98 ± 0.07 g/L | Residual glucose ([2]; 96 hours): 46.4 ± 0.9^c g/L
